# Assay results published in US8252768B2, “Designer therapy of pancreatic tumors” (University of Miami, priority 2006, dated 2012).
# Columns and labels:
# cytidine deaminase (CD) = target: T1, cytidine deaminase (CD) (Homo sapiens, UniProt P32320); assay: Competition assay for substrates of cytidine deaminase, crude extracts of PC-3 cells; format: biochemical; conditions: competition studies, human tumor cell extracts
# T1 construct: Crude extracts of PC-3 cells in culture were prepared as described above; endogenous in cells; host or cells: PC-3 cells (crude extract supernatant)
# T1 sequence (P32320 whole entry): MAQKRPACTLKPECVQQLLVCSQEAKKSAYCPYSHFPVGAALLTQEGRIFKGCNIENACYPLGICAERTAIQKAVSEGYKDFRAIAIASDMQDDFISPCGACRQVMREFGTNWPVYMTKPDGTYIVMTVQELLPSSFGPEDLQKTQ
# Description: The crude enzyme extract (the supernatant of a 10 minute 14,000×g centrifugation) was then added. When cytidine was used as substrate, assays were conducted with benzacyclouridine to inhibit uridine phosphorylases. […] After 0, 15, and 30 minutes, the reaction was stopped and denatured protein removed as above for dC Kinase. […] Aliquots were then spotted on PE cellulose TLC sheets and the reactants separated with a solvent system composed of isopropanol:HCl:H2O (170:41:39). […] The nucleosides were visualized under U.V. light and the spots cut out and counted. […] Enzyme activity was expressed as nmole formed in 30 min/mg/protein.
# Competition assays to determine Substrate Specificity: Crude extracts of PC-3 cells in culture were prepared as described above. Two concentrations of crude extract were utilized for the studies as determined from the analysis of protein.
# The assays were run for 0, 15, and 30 minutes.
# PC-3 cells [1] = assay: Cytotoxicity (clonogenic) assay, 72 h drug exposure; format: cell-based, human
# Description: (§1) Toxicity and Radiation Studies: The methods using clonogenic assays described by Perez and Greer (Int. J. Rad. Oncology: Biology, Physics 12, 1523-1527, 1986—incorporated herein by reference in its entirety) were followed.
# Cytotoxicity Assays: 5×10^5 cells were plated in 60 mm tissue culture dishes in 5 mls of the optimal growth media for the particular cell line in an humidified 95% air-5% CO2 atmosphere. The plates were incubated for 18-20 hours to allow for attachment and log-phase growth to begin. At the end of this period the growth medium was aspirated and replaced with […]. Four times (4×) concentrated solutions were prepared and then 1 ml was added to the plates; and growth media were then added to a total volume of […]. The plates were then incubated for 72 hours and the cells harvested by trypsinization. The cells were then serially diluted in growth medium replated into 60 mm dishes and incubated for 6 to 9 days depending on the cell line. After this incubation period, the media was aspirated and the colonies were washed twice with a PBS solution. The colonies were then stained with a 0.2% crystal violet-20% ethanol solution for 5 min. the stain was removed, the colonies were washed and air dried. A viable colony was one consisting of 25 or more normal appearing cells and was considered to have arisen from a single cell. The colonies were counted under a dissecting microscope. Two to three dilutions for every condition were plated. Dishes containing 30-300 colonies were used in the calculation and all conditions were done in duplicate.
# Lewis lung carcinoma = assay: Mean day of death (T/C), Lewis lung carcinoma in mice; format: in vivo, BD2F1 mice
# Description: ; The efficacy of the drug, F3methyldC followed the pattern of Selectivity. The mean day of death (Tumor/Control) was 1.3, 1.6, 1.8 and 1.4 for 10, 25, 50 and 75 mg/kg H4U, respectively. […].
# PC-3 cells [2] = assay: Radiosensitization of cells in culture (Cobalt 60, clonogenic survival); format: cell-based, human; conditions: PC-3 cells
# Description: as §1
# Irradiation of Cells in Culture: 2×10^5 cells were plated in 25 cm^2 flasks and grown for 18 hr at 37° C. in a humidified 5% CO2 atmosphere. The medium was then removed and replaced with medium containing the appropriate drug concentrations and incubated for 72 hrs then removed and the cell monolayers were rinsed twice with PBS. The flasks were then filled with 50 ml of radiation medium (3 parts RPMI 1640 and 7 parts PBS plus antibiotics and glutamine). The cells were then irradiated using a Cobalt 60 irradiator. The cell monolayers were placed 35 cm away from the source and irradiated for appropriate times according to the dose rate. The dose rate was calculated, at this distance, using ionization chambers. Attenuation factors due to the polystyrene flask (0.9923) and the medium (H2O=0.8715) were considered in calculating the exposure period.
# After irradiation the cell monolayers were washed again, replenished with growth media, and incubated for 1½ hours. The cell monolayers were then trypsinized and the cells serially diluted, appropriate dilutions were then plated in 60 mm dishes and incubated for 7-9 days at 37° C. and CO2. At the end of this period the cells were stained with crystal violet and the colony forming ability determined by considering 25 or more normal cells as a viable colony. The viabilities were determined and the appropriate survival curves derived. All conditions were done in duplicate using two flasks treated under identical conditions.
# mouse tumor = conditions: in vivo; cited from earlier work
# [3] = target: deoxycytidine kinase (dCK) (Homo sapiens, UniProt P27707); assay: Competition assay for substrates of deoxycytidine kinase, crude extracts of PC-3 cells
# Chain of deoxycytidine kinase (dCK) (P27707 whole entry): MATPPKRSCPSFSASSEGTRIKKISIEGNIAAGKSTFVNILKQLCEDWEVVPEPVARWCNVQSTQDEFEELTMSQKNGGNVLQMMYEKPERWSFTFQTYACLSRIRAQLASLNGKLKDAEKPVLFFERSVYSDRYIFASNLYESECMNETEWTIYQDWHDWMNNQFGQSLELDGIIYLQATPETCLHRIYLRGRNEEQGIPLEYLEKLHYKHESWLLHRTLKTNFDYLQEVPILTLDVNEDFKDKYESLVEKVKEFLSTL
compound,measurement,setting,value
"Nc1nc(=O)n([C@H]2C[C@H](O)[C@@H](CO)O2)cc1C(F)(F)F [5-TrifluoromethyldC, 5-Trifluoromethyl-2′-deoxycytidine]",substrate for cytidine deaminase (in words),cytidine deaminase (CD),reasonably good substrate
same,effect of thymidine on cytotoxicity (in words),PC-3 cells [1],antagonized by thymidine
same,effect of tetrahydrouridine (H4U) on cytotoxicity / viability (in words),"PC-3 cells [1]; human, 72 h",can be antagonized by H4U
same,% S,"PC-3 cells [1]; nucleoside 1 μM, H4U 5 μM",67%
same,% S,"PC-3 cells [1]; nucleoside 1 μM, H4U 100 μM",100%
same,% S,"PC-3 cells [1]; nucleoside 1 μM, H4U 1500 μM",100%
same,% S,"PC-3 cells [1]; nucleoside 10 μM, H4U 5 μM",0.1%
same,% S,"PC-3 cells [1]; nucleoside 10 μM, H4U 100 μM",2%
same,% S,"PC-3 cells [1]; nucleoside 10 μM, H4U 1500 μM",3.3%
same,MDD T/C (mean day of death),Lewis lung carcinoma; H4U 10 mg/kg with F3methyldC,1.3
same,MDD T/C (mean day of death),"Lewis lung carcinoma; H4U 25 mg/kg with F3methyldC, mean ± SE",1.6
same,MDD T/C (mean day of death),"Lewis lung carcinoma; H4U 50 mg/kg with F3methyldC, mean ± SE",1.8
same,MDD T/C (mean day of death),Lewis lung carcinoma; H4U 75 mg/kg with F3methyldC,1.4
same,radiosensitization of PC-3 cells (in words),PC-3 cells [2],not a radiosensitizer
same,efficacy vs a mouse tumor compared with other fluorinated pyrimidines (in words),mouse tumor,"superior to 5-FUra, 5-FdU and 5-F3dT"
same,substrate for deoxycytidine kinase (in words),"[3]; competition studies, human tumor cell extracts",poor substrate
same,inhibition at 250 µM,[3]; read-out: % Inhibition (dCK),0%
